Assay results from publication PMC7557804, “The Anti-Microbial Peptide (Lin-SB056-1)2-K Reduces Pro-Inflammatory Cytokine Release through Interaction with Pseudomonas aeruginosa Lipopolysaccharide” (Antibiotics, 2020).

How the values were obtained:
A549 cells = test: Cytotoxicity (LDH release) towards A549 cells; assay type: cell-based, Human; details: LPS-stimulated A549, 4 h
Protocol: (§1) Human non-small-cell lung adenocarcinoma A549 cells (ATCC CCL-185; LGC Standards, Milan, Italy) and human monocytic THP-1 cells (ATCC TIB-202; LGC Standards) were cultured in tissue culture flasks in Dulbecco’s modified essential medium (DMEM) (Euroclone, Milan, Italy) and RPMI 1640 medium (Euroclone), respectively. Both media were supplemented with 2 mM L-glutamine (Euroclone) and 10% heat-inactivated fetal bovine serum (FBS; Euroclone). Confluent monolayers were detached from the culture flask with 0.25% trypsin/1 mM EDTA solution (Euroclone), suspended in complete culture medium and seeded into flat-bottom 96-well plates at a final density of 1 × 10^4 cells/well (A549) and 2 × 10^4 cells/well (THP-1). A549 cells were cultured for 24 h at 37 °C, 5% CO2 in order to allow adhesion and formation of semi-confluent monolayers. THP-1 cells were cultured for 3 days (37 °C, 5% CO2) in the presence of 100 nM TPA (Sigma-Aldrich, St. Louis, MO, USA) to induce their differentiation into macrophage-like cells.
(§2) The cytotoxicity of lin-SB056-1 and (lin-SB056-1)2-K towards A549 and THP-1 cells was evaluated to exclude a possible correlation between reduction in cytokine levels and decrease in cell numbers. To this end, culture supernatants of cells stimulated with LPS in the presence of the peptides were employed to quantify the amount of cytoplasmic LDH released by dead cells. Cells incubated in culture medium alone or in the presence of LPS served as an indication of spontaneous cell death (cell viability controls), while cells treated with a commercial lysis buffer (Pierce LDH cytotoxicity assay kit, Thermo Fisher Scientific) were used as cell death control (100% cell lysis). The enzymatic activity of LDH in cell supernatants was measured using the Pierce LDH cytotoxicity assay kit (Thermo Fisher Scientific) following manufacturer’s instructions. The cytotoxic effect was determined as follows: cytotoxicity (%) = [(LDH activity of A/LDH activity of B) × 100], where A represents peptide-treated or untreated cells (both in the presence and absence of LPS), and B corresponds to the cell lysis control.

P. aeruginosa [1] = details: 3-D lung epithelial cell model, cited from earlier work
Description: (§3) In our previous work, we explored different strategies to enhance the anti-bacterial and anti-biofilm activity of the semi-synthetic peptide lin-SB056-1 [12] in physiologically relevant, host-mimicking conditions that are known to interfere with the stability and efficacy of AMPs.

[2] = tested on: reference strain and CF lung isolates of P. aeruginosa; details: cell culture medium; cited from earlier work
Description: as §3

P. aeruginosa [3] = details: in vivo-like models of lung infection; cited from earlier work
Description: The global issue of anti-microbial resistance coupled with the lack of new treatments for bacterial infections has stimulated interest in the use of AMPs for therapeutic purposes. Due to their unique mechanism(s) of action and wide spectrum of biological activities, AMPs are emerging as a promising alternative to conventional anti-microbial agents for the management of antibiotic-resistant and biofilm-associated infections. Although mainly intended for topical use due to potential toxicity and reduced stability under physiological conditions, many different peptides with anti-micro ...

THP-1 macrophages = test: Cytotoxicity (LDH release) towards THP-1 macrophages; assay type: cell-based, Human; details: 4 h
Protocol: as §1, §2

[4] = BODIPY TR cadaverine (BC) fluorescent displacement assay, LPS binding; design: species or system P. aeruginosa; details: 50 mM Tris-HCl, pH 7.4, 25 °C
Protocol: Measurement of the ability of lin-SB056-1 and its dendrimeric derivative to bind P. aeruginosa serotype 10 LPS (Sigma-Aldrich) in vitro was performed by a fluorescent displacement assay using the BODIPY TR cadaverine (BC) probe (5-(((4-(4,4-difluoro-5-(2-thienyl)-4-bora-3a,4a-diaza-s-indacene-3-yl)phenoxy)acetyl)amino)pentylamine, hydrochloride); Thermo Fisher Scientific), as described elsewhere. BC binds to LPS by recognizing the lipid A portion and the probe fluorescence is quenched. When a peptide able to interact with LPS is added, BC is displaced from the complex and its fluorescence increases. LPS binding assays were carried out in 50 mM Tris-HCl buffer, pH 7.4. Aliquots of the peptides at a final concentration of 0.1 μM were successively added to a cuvette containing the LPS/BC complex (10 µg/mL P. aeruginosa LPS and 10 µM BC). Fluorescence measurements were performed with a Perkin-Elmer LS 55B spectrofluorometer (Perkin-Elmer, Waltham, MA, USA) using a thermostated (25 °C) cuvette apparatus (excitation: 580 nm; emission: 620 nm).

## [KWKIRVRLSA]2-K [(lin-SB056-1)2-K, dendrimeric derivative of lin-SB056-1]
A549 cells; up to 19.25 μM (highest tested), 37 °C, 5% CO2, relative to cell lysis control, at least three independent experiments
  cell death (LDH release), with LPS: less than 5%
A549 cells; up to 19.25 μM, LDH release
  toxicity: no detectable toxicity
P. aeruginosa [1]; 19.25 µM
  reduction in the number of biofilm-forming bacteria: ≤ 99.9%
P. aeruginosa [1]; compared to lin-SB056-1 and lin-SB056-1/EDTA
  anti-biofilm activity: stronger anti-biofilm activity compared to both lin-SB056-1 and the lin-SB056-1/EDTA combination
[2]
  MIC (Minimal Inhibitory Concentration): 2.4 to 9.6 µM
  fold lower MIC compared to lin-SB056-1: 4 to 16 fold
P. aeruginosa [3]
  anti-bacterial and anti-biofilm activity in in vivo-like models: remarkable anti-bacterial and anti-biofilm activity
THP-1 macrophages; LPS-stimulated THP-1 macrophages, up to 19.25 μM (highest tested), 37 °C, 5% CO2, relative to cell lysis control, at least three independent experiments
  cell death (LDH release), with LPS: less than 5%
THP-1 macrophages; LPS-stimulated THP-1 macrophages, up to 19.25 μM, LDH release
  toxicity: no detectable toxicity
THP-1 macrophages; THP-1 macrophages, 19.25 μM peptide with LPS, 37 °C, 5% CO2, mean of at least three independent experiments
  cell death (LDH release), co-cultured with peptide and LPS: 5%
THP-1 macrophages; THP-1 macrophages, 19.25 μM peptide, no LPS, 37 °C, 5% CO2, mean of at least three independent experiments
  cell death (LDH release), in the absence of LPS: 14%
[4]; BC displacement
  LPS-binding affinity compared to monomeric form: significantly greater affinity
[4]; P. aeruginosa serotype 10 LPS 10 µg/mL, BC 10 µM, excitation 580 nm, emission 620 nm, mean of three independent experiments, SD not exceeding 5%
  ED50 (Effective Displacement; peptide concentration displacing half of the BC): approximately 0.4 µM
